{"source": "patent US20130259929A1", "about": "“USE OF A PHOSPHOPEPTIDE ABLE TO BLOCK HER3/P85 INTERACTION FOR THE TREATMENT OF HER2 HYPER-EXPRESSING TUMOURS” (priority 2010, published 2013)", "key": {"[1]": {"test_system": "MCF7 xenograft", "experiment": "Electroporation tumour therapy of MCF7 xenografts", "type": "in vivo, SCID mice", "method": "(§1) Xeno-grafts. In vivo tests have been carried out using 40 day old SCID female mice (Harlan Laboratories, Milan, IT). At day 0, animals have been totally anesthetized with intramuscular injection of 400 μg/animal (average weight 25 g) of Zoletil (Virbac) containing 0.12% Xylor (Xylazine), and transplanted subcutaneously (s.c.), in intrascapular mouse region with pellet of […] (1.7 mg/sustained release pellet over 60 days, Innovative Research of America, Sarasota, Fla.). On the next day, 5×10^6 proliferating and scr and 1257 peptide previously transfected, as above described, MCF7 or BT474 cells, have been re-suspended in 0.1 ml of Matrigel (BD Biosciences) and subcutaneously inoculated in each mouse. […] Tumour growth has been monitored two times weekly using calibration along two orthogonal axes: length (L) and […]. The tumour volume (V) has been calculated using the formula V=L*(W2)/2. All the procedures relating to animals and treatment thereof have been carried out according institutional guidelines.\nElectroporation tumour therapy. […] A dilute solution of 1257 peptide (75 ug) in 15 ul of sterile PBS has been directly injected in each xenograft, which subsequently has been electrode pulsed. PBS diluted scr peptide has been used as control, according to same procedure. As a further control we have analyzed two groups of not peptide injected animals, except that one of two was subjected to electroporation. Therapy has been repeated once weekly, and tumour size monitored up to 70 days.\nTumour size has been measured at regular intervals (alternate days) using a caliber and tumour volume has been calculated as above described. In order to minimize animal pain during the electroporation, tests have been carried out under total anesthesia. All the procedures concerning animals and treatment thereof have been carried out according to institutional guidelines.\nIn an attempt to use an experimental approach mimicking human therapy, scr or 1257 phosphopeptides has been administered directly into tumour. The administration of the peptide has been carried out by injection and successive electroporation in order to allow the phosphopeptide penetration. This technique facilitating the drug absorption from the tumour is used for human mainly to treat superficial lesions like melanomas, skin tumours or cutaneous metastases, but currently it is also used for carcinomas during pre-operation sessions. The peptide administration has been carried out when the tumour volume was 200 mm^3."}, "[2]": {"test_system": "MCF7 cells", "experiment": "Cell death and apoptosis (Trypan Blue exclusion)", "type": "cell-based, human", "conditions": "MCF7 cells vs parental or scr transfected; Herceptin 1 μg/ml 40 hours where combined", "description": "(§2) Cell death and Apoptosis. MCF7, BT474 and MDA-MB-453 cell lines have been plated at 5×10^5 concentration in 60 mm plates. On subsequent day the cells have been transfected with ErbB3 specific interference oligonucleotides or peptides. […] The cells have been washed two times with cold PBS and then trypsin collected. The evaluation of cellular viability has been carried out by means of Trypan Blue exclusion. The use of anti-PARP antibody in Western Blotting analysis allowed apoptosis to be evaluated. Briefly the cells have been lysed in RIPA buffer [150 mM NaCl, 1% NP-40, 0,5% sodium deoxycholate (DOC), 0.1% SDS, 50 mM TrisHCl (pH 8), 1 mM PMSF, 1 mM EGTA, 50 mM NaF, 50 mM Na3VO4 and protease inhibitors (Roche, Milano, IT)]. The samples have been boiled for 5 minutes at 95° C., resolved using SDS-PAGE, transferred on nitrocellulose and blotted using anti-PARP antibody. The tumour cell death analyzed by immunohistochemistry have been obtained using TUNEL assay."}, "[3]": {"test_system": "BT474 cells", "experiment": "Cell death and apoptosis (Trypan Blue exclusion)", "type": "cell-based, human", "conditions": "BT474 cells vs parental or scr transfected; Herceptin 1 μg/ml 40 hours where combined", "description": "as §2"}, "[4]": {"test_system": "MAPK phosphorylation", "experiment": "MAPK (ERK1/2) phosphorylation (Western blot) after peptide transfection", "type": "cell-based, human", "conditions": "MCF7, BT474 and MDA-MB-453 cells (FIG. 4A); Herceptin where combined", "method": "Peptide transfection. In order to inhibit the p85 and ErbB3 interaction, MCF7, BT474 and MDA-MB-453 cell lines have been transfected using 80, 100, and 180 μg, respectively, of the following phosphopeptides:\nTreatments and lmmunodecorations. […] Briefly the cells have been plated at 5×10^5 concentration in 60 mm plates. […] At the end of the treatment the cells have been lysed with RIPA buffer [150 mM NaCl, 1% NP-40, 0,5% sodium deoxycholate (DOC), 0.1% SDS, 50 mM TrisHCl (pH 8), 1 mM PMSF, 1 mM EGTA, 50 mM NaF, 50 mM Na3VO4 and protease inhibitors (Roche, Milano, IT)] in order to analyze the expression levels of phosphorylated and total ErbB-3, ErbB-2, ERK and HSP-70 proteins. In order to analyze the levels of Akt phosphorylation and expression, the cells have been lysed in NP-40 buffer [1% NP-40, 10% glycerol, 137 mM NaCl, 20 mM TrisHCl (pH 7.4), 50 mM NaF, 1 mM PMSF, 5 mM Na3VO4, protease inhibitors (Roche, Milano, IT)]. Cell lysates have been incubated on ice for 20 minutes and centrifuged at 14000 rpm for 20 minutes. RIPA buffer obtained cell extracts have been boiled for 5 minutes at 95° C., while NP40 buffer lysed samples have been boiled at 65° C. for 5 minutes. […] After thorough washing, nitrocellulose peroxidase activity has been detected by chemiluminescence (Lite-blot-Euroclone, Milano, IT)"}, "[5]": {"test_system": "MCF7/Luc cells", "experiment": "In vivo growth of peptide-transfected MCF7/Luc cells inoculated s.c.", "set-up": "species or system SCID mice", "method": "as §1\nGeneration of mammary tumour luminescent cells. Mammary tumour MCF7 cell lines stably transfected using pGL4.51 (luc2/CMV/Neo) expression vector, produced by Promega (Me, IT), have been transfected using scr or 1257 phosphopeptide ([…]×5×10^4 cells/mouse) and after 30 h subcutaneously inoculated in SCID mice (5×10^6 cells/mouse) in 200 μl (1:1 Matrigel: cell suspension in serum free medium). Mice have been in vivo imaged 20′ after inoculation and once weekly over 11 weeks. The animals have been anesthetized, as above reported, and subjected to intraperitoneal injection with 200 μl of luciferin (Caliper, Mi, IT); 10′ after incubation photon emission has been analyzed at 3′ minute exposure using Xenogen Ivis Lumina 2 machine. Growth of these cells has been monitored as reported in xenografts section.\nThen it has been verified whether 1257 phosphopeptide was effective also in vivo. To this purpose immunocompromised SCID mice have been used. In the presence of oestrogen tablets, 5×10^6 control cells transfected with scr peptide or transfected with 1257 peptide have been injected subcutaneously between mouse scapulae. In order to verify the viability of phosphopeptide transfected cells in animals we have generated a stable luciferase gene expressing MCF7 cell line (MCF7/Luc)."}, "[6]": {"conditions": "intra-tumour injection + electroporation once weekly, MCF7"}, "[7]": {"conditions": "s.c. inoculation of transfected MCF7 cells, up to 16th week"}}, "note": "Non-standard residues stand in square brackets, D forms with d. No end group written: not given here. pY = N[C@@H](Cc1ccc(OP(=O)(O)O)cc1)C(=O)O"}
{"substance": "RDGGGPGGDpYAAMGACPA (RDGGGPGGD[pY]AAMGACPA; listed as Homo sapiens) [1257 phosphopeptide]", "values": [{"measurement": "apoptosis in tumours (TUNNEL assay)", "setting": "[1]; immunohistochemistry of electroporation treated tumours (FIG. 9A)", "value": "go in apoptosis"}, {"measurement": "proliferation in tumours (Ki67 assay)", "setting": "[1]; immunohistochemistry of electroporation treated tumours (FIG. 9B)", "value": "low proliferating index"}, {"measurement": "inhibition of tumour growth compared to control not treated tumours", "setting": "[1]; [6]", "value": 58, "unit": "%"}, {"measurement": "inhibition of tumour growth compared to scr peptide inoculated tumours", "setting": "[1]; [6]", "value": 50, "unit": "%"}, {"measurement": "cell death, times higher than controls", "setting": "[2]", "value": 3, "unit": "times"}, {"measurement": "cell death, times higher than controls", "setting": "[3]", "value": 4, "unit": "times"}, {"measurement": "MAPK phosphorylation", "setting": "[4]", "value": "inhibition of MAPK phosphorylation"}, {"measurement": "luminescence of transplanted cells over the time", "setting": "[5]; bioluminescence imaging weekly (FIG. 7A)", "value": "progressively decreases"}, {"measurement": "time after inoculation at which tumours were calibratable", "setting": "[5]; s.c. inoculation of transfected MCF7 cells", "value": "about 10 week"}, {"measurement": "animals that displayed tumour", "setting": "[5]; [7]", "value": "One out of five"}, {"measurement": "reduction of tumour take", "setting": "[5]; [7]", "value": 80, "unit": "%"}]}
